Measured values reported in patent US12564568B2, “PKC pathway in Parkinson's Disease” (CEDARS-SINAI MEDICAL CENTER, priority 2018, dated 2026).
Entries after “also recorded” stand apart in the source; their conditions may differ. Where two headings read alike, the source gives them in different places. Where a SMILES comes first, the peptide text is derived from it. The star is where a group is joined. Cbz = O=C(OCc1ccccc1)*

Legend:
[1] = tested on: α-synuclein; assay: α-synuclein protein level in day 30 iPSC-derived mDA (DaN) cultures after drug treatment (western blot, immunostaining); format: cell-based, human; settings: for synuclein level: D30 mDA neurons (FIG. 37); for α-synuclein level: phorbol ester PKC agonists, PMA 10 μM, PRO 5 μM, day 27-30; for α-synuclein levels (western blot): EOSPD/PD cultures (190iPD); for α-synuclein levels (western blot) / amount of α-synuclein protein (western blot): treated 3 days from day 27, PEP005 1 μM, SMER-28 5 μM, Trehalose; for amount of α-synuclein protein (western blot): control line cultures (02iCTR)
Protocol: (§1) iPSC maintenance, mDA neuron differentiation and drug treatments: iPSCs were maintained in E8 media on Matrigel and passaged every 5 days at split ratios from 1:6 to 1:12 as needed using Versene. Only iPSCs between passage 17 and passage 35 were used in this study. For differentiation, iPSCs were grown to ˜80% confluency. Cells were singularized with Accutase (Millipore/Sigma #SCR005) (5 minutes at 37° C.) and plated onto Matrigel-coated 6-well plates (BD Biosciences) at 200K cells per cm^2 (for a fully confluent monolayer) in E8 media with 5 μM Y27632 (StemGent). 24 hours after plating, media was changed to Stage 1 (50% DMEM/F12, 50% Neurobasal, N2, B27-Vitamin A, LDN-193189 (LDN), SB431542 (SB)). Stage 1 media was changed each day (3 mL per well) for 3 days. Media was next switched to Stage 2 (50% DMEM/F12, 50% Neurobasal, N2, B27-Vitamin A, LDN, SB, Purmorphamine (PMN), CHIR99021 (CHIR), Sonic hedgehog (SHH), Fibroblast Growth Factor 8 (FGF8)). Stage 2 media was changed each day (3 mL per well) for 4 days. Media was then switched to Stage 3 (50% DMEM/F12, 50% Neurobasal, N2, B27-Vitamin A, LDN, CHIR, all-trans-Retinoic acid (ATRA)). Stage 3 media was changed each day (3 mL per well) for 4 days. Finally, media was switched to Stage 4 (50% DMEM/F12, 50% Neurobasal, N2, B27+Vitamin A, Brain-Derived Neurotrophic Factor (BDNF), Glial Cell Line-Derived Neurotrophic Factor (GDNF), dibutyryl cyclic-AMP sodium salt (dbCAMP), L-Ascorbic Acid (AA), γ-Secretase inhibitor (DAPT), CHIR, Transforming Growth Factor beta-3 (TGF β3)). Stage 4 media was changed each day (3 mL per well) for 3 days. On day 15, cells were dissociated to single cells using Accutase (20 mins at 37° C.) and gently lifted. Dissociated cells were resuspended in Maturation Medium (50% DMEM/F12, 50% Neurobasal, N2, B27+Vitamin A, BDNF, GDNF, dbCAMP, AA, DAPT, TGF3) plus 5 μM Y27632 and reseeded onto Matrigel-coated 6-well plates at 200 k/cm^2 in 1 mL total volume or onto Matrigel-coated L-glass coverslips in a 24-well plate at 200 k/50 μL drop. Cells were allowed to attach for 45 mins at 37° C. and Maturation Medium was then added to final volumes of 3 mL per well for 6-well plates or 1.5 mL per well for 24-well plates with coverslips. A full medium change was performed 48-hours post-seeding and medium was changed every 3 days until day 30. For drug treatments, cells at day-27 were fed with Maturation Medium containing the indicated drug and cells were analyzed at day 30.
Immunocytochemistry and imaging: mDA neuron cultures were plated on L-glass coverslips and grown as above. Day 30 neurons were fixed in 4% PFA at room temperature for 10-15 mins. Fixed coverslips were washed in PBS and permeabilized for 10 minutes at room temperature in 1% Triton X-100 in PBS, followed by staining in primary antibody solution (5% normal donkey serum, 0.125% Triton-X, PBS) overnight at 4° C. with the following antibodies: TH (1:5000, Immunostar #22941) and α-synuclein (1:500, Abcam #ab138501). Samples were washed 3 times in PBS and stained with species-specific Alexa Fluor 488 or 594-conjugated secondary antibodies (1:500, Invitrogen) for 2 hours at room temperature, followed by DAPI counterstain. Confocal Z-stack images were acquired using a A1 microscope (Nikon) with 40× and 20× objectives and rendered using maximum intensity projection through IMARIS software (Bitplane).
Western blot: Cells were gently scraped off the plates, washed with PBS, centrifuged at 15000 RPM for 1 min, and dry pellets were frozen at −80° C. Samples were then thawed and lysed using 1×NETN buffer (20 mM Tris-HCl (pH 8.0), 100 mM NaCl, 0.5 mM EDTA and 0.5% NP-40) supplemented with phosphatase/protease inhibitor cocktail (MS-SAFE, Sigma-Aldrich). Lysates were sonicated in an automated cold bath sonicator for 20 mins using alternating 10 sec pulses followed by 10 sec rests. Samples were centrifuged for 20 min at 4° C. at 15000 RPM. Total soluble protein concentrations were measured using a Bradford assay (BIO-RAD). […]

[2] = tested on: p-PKCα; settings: for phospho PKCα level: D30 mDA neurons (FIG. 37)
[3] = tested on: P53; assay: P53 level in mDA cultures under proteasome inhibitor, 24 hrs (western blot); format: cell-based, human; settings: mDA/DaN cultures, 24 hrs treatment
Protocol: Protein degradation can be largely divided into protosomal and autophagy/lysosomal degradation pathways.
Western blot: Cells were gently scraped off the plates, washed with PBS, centrifuged at 15000 RPM for 1 min, and dry pellets were frozen at −80° C. Samples were then thawed and lysed using 1×NETN buffer (20 mM Tris-HCl (pH 8.0), 100 mM NaCl, 0.5 mM EDTA and 0.5% NP-40) supplemented with phosphatase/protease inhibitor cocktail (MS-SAFE, Sigma-Aldrich). Lysates were sonicated in an automated cold bath sonicator for 20 mins using alternating 10 sec pulses followed by 10 sec rests. Samples were centrifuged for 20 min at 4° C. at 15000 RPM. Total soluble protein concentrations were measured using a Bradford assay (BIO-RAD). […] Combined α-synuclein and p-PKCα expression plots were calculated by first normalizing bands to β-actin, then to the 02iCTR signal present in each blot. […] ROC plot and area under the curve was determined using R package ROCR to determine predicative probability percentages.
To test overall degradation rates, global […] function was inhibited in culture for 48 hours via cycloheximide treatment and protein was assessed and quantified over time. […] A significant reduction in the amount of LAMP1 was detected in all 3 EOSPD lines, which was consistent with the proteomics analysis. […]

[4] = tested on: α-synuclein; assay: α-synuclein protein level in day 30 iPSC-derived mDA (DaN) cultures after drug treatment (western blot, immunostaining); format: cell-based, human; settings: control and EOSPD cultures, 24 hrs treatment
[5] = tested on: tyrosine hydroxylase (TH); format: cell-based, human; settings: mDA cultures, phorbol ester PKC agonists; PMA 10 μM, PRO 5 μM, day 27-30
Protocol: as §1
Analytical flow cytometry: Day-30 cultures in 6-well plates were washed once in phosphate buffered saline (PBS) then 1 mL Accutase was added to each well and incubated for 25 mins at 37° C. or until the cells fully lifted. Cells were washed with an additional 2 mL Maturation Medium and very gently triturated until large clumps were no longer visible at which point cells were pelleted by centrifugation (1500 RPM for 3 mins). Cells were gently resuspended in 4% paraformaldehyde (PFA) in PBS and allowed to fix for 10-15 mins at room temperature. Fixed single cells were permeabilized using 1% Trition X-100 (Sigma-Aldrich) and stained using primary antibodies against TH (1:500 Immunostar, 22941), α-synuclein (1:1000 Abcam, ab138501), and MAP2ab (1:1000 Sigma-Aldrich, M1406), or isotype controls at same dilution (Cell Signaling IgG Isotype Control rabbit #3900S and mouse #5415S). Secondary antibodies (Alexa Fluor 488 and 594 donkey anti-mouse and donkey anti-rabbit, Invitrogen) were used at 1:500. Stained samples were quantified on an LSR Fortessa cytometer using BD FACSDiva software.
Immunocytochemistry and imaging: mDA neuron cultures were plated on L-glass coverslips and grown as above. Day 30 neurons were fixed in 4% PFA at room temperature for 10-15 mins. […]

`CCC/C=C/C=C/C(=O)O[C@H]1/C(=C/C(=O)OC)C[C@H]2C[C@H]([C@@H](C)O)OC(=O)C[C@H](O)C[C@@H]3C[C@H](OC(C)=O)C(C)(C)[C@](O)(C[C@@H]4C/C(=C/C(=O)OC)C[C@H](/C=C/C(C)(C)[C@]1(O)O2)O4)O3` [Bryostatin 1] was tested, and the synuclein level [1] was “unclear effects”, the synuclein level ([1]; listed as Bryostratin) was “did not seem to affect” and the “phospho PKCα level” value [2] was “reduction”. For the same compound, the “phospho PKCα level” value ([2]; listed as Bryostratin) was “did not seem to affect”.
For `CC(C)C[C@@H](C=O)NC(=O)[C@H](CC(C)C)NC(=O)[C@H](CC(C)C)NC(=O)OCc1ccccc1` [MG132] (Cbz-Leu-Leu-Leu-aldehyde), the P53 level [3] was “accumulation” and the “α-synuclein levels under proteasome inhibition” value [4] was “no significant increase; also recorded: no substantial change”.
In the case of `CCCCCCCCCCCCCC(=O)O[C@@H]1[C@@H](C)[C@@]2(O)[C@@H](C=C(CO)C[C@]3(O)C(=O)C(C)=C[C@@H]23)[C@@H]2C(C)(C)[C@]12OC(C)=O` [PMA, Phorbol 12-myristate 13-acetate], the α-synuclein level ([1]; mDA cultures) was “reduction”, the TH level [5] was “increases” and the p-PKCα level ([2]; mDA cultures, phorbol ester PKC agonists, PMA 10 μM, PRO 5 μM, day 27-30) was “reduction”.
In the case of `CC(=O)O[C@@]12C[C@@H](C)[C@@]3(O)[C@@H](C=C(CO)C[C@]4(O)C(=O)C(C)=C[C@@H]34)[C@@H]1C2(C)C` [PRO, Prostratin], the “α-synuclein expression, dose response” value ([1]; dose response study, mDA cultures) was “decreased”, the α-synuclein level ([1]; mDA cultures) was “reduction” and the TH level [5] was “increases”.
In the case of `C=CCNc1ncnc2ccc(Br)cc12` [SMER28], the “α-synuclein levels (western blot)” value [1] was “not”, the “amount of α-synuclein protein (western blot)” value [1] was “significantly reduced” and the “amount of α-synuclein protein (western blot)” value ([1]; listed as SMER-28) was “reduction”.
`OC[C@H]1O[C@H](O[C@H]2O[C@H](CO)[C@@H](O)[C@H](O)[C@H]2O)[C@H](O)[C@@H](O)[C@@H]1O` [Trehalose] was tested, and the “α-synuclein levels (western blot)” value [1] was “reduced; also recorded: reduction”.
